In US9751878B2, “Tetrahydronaphthyridine somatostatin receptor 5 antagonists” (Takeda Pharmaceutical Company Limited, priority 2013, dated 2017):

Test system: Male KK-Ay/Ta mice, a type 2 diabetes model
Test: Antidiabetic effect in mice (2)
Assay type: in vivo
Settings: 0.03% food admixture with CE-2 diet for 2 weeks; n=7
Description: Antidiabetic Effect in Mice (2)
Male KK-Ay/Ta mice (Clea Japan Inc.), a type 2 diabetes model, were used in this study. At the age of 7-week old, blood samples were collected from tail vein at 8:00 am, and animals were divided into separate groups (n=7) based on glycated hemoglobin (GHb), plasma glucose, insulin, triglyceride levels and body weight. The Compound of Example 35 (0.03% (weight % of the compound in the food admixture)) was administered by food admixture with CE-2 diet (Clea Japan Inc.) for 2 weeks. After 2 weeks of treatment, GHb was determined by auto-analyzer HLC-723G8 (TOSOH, Japan).

In the case of `CCCc1nc2c(cc1C(=O)O)C(=O)N(C1CCN(Cc3cc(C4CC4)c(-c4ccc(F)cc4F)cc3OCC)CC1)CC2` [Example 35, 6-(1-((2-Cyclopropyl-5-ethoxy-2′,4′-difluorobiphenyl-4-yl)methyl)piperidin-4-yl)-5-oxo-2-propyl-5,6,7,8-tetrahydro-1,6-naphthyridine-3-carboxylic acid], the “Average of delta GHb (%)” value is reported as 0.60%.
